Source: US20250163104A1, “MACROCYCLIC IMMUNOMODULATORS” (priority 2021, published 2025)
Where a SMILES comes first, the peptide text is derived from it. Bridges are numbered along the chain shown (N, C = ends). [ ]: non-standard residue; d: D form. The star is where a group is joined. Bip = N[C@@H](Cc1ccc(-c2ccccc2)cc1)C(=O)O; Phe(3-Cl) = N[C@@H](Cc1cccc(Cl)c1)C(=O)O; Phe(3-Me) = Cc1cccc(C[C@H](N)C(=O)O)c1; 3Pal = N[C@@H](Cc1cccnc1)C(=O)O; 4Pal = N[C@@H](Cc1ccncc1)C(=O)O; Cha = N[C@@H](CC1CCCCC1)C(=O)O; Carboxymethyl = O=C(O)C*; Orn = NCCC[C@H](N)C(=O)O; Dab = NCC[C@H](N)C(=O)O; Dap = NC[C@H](N)C(=O)O

The compounds below were run against T1, human PD-1 / PD-L1-Ig binding on Jurkat cell line over-expressing human PD-1 (Jurkat-PD-1) (Homo sapiens, UniProt Q15116) (assay: Jurkat-PD-1 Cell Binding High-Content Screening Assay (CBA)). Details: Jurkat HPD1_PDL1 IC50, Jurkat-PD-1 cells, PE-labeled PD-L1-Ig 20 nM final.
T1 construct: expressed in transfected cells; host or cells: Jurkat
T1 sequence (Q15116 25-288): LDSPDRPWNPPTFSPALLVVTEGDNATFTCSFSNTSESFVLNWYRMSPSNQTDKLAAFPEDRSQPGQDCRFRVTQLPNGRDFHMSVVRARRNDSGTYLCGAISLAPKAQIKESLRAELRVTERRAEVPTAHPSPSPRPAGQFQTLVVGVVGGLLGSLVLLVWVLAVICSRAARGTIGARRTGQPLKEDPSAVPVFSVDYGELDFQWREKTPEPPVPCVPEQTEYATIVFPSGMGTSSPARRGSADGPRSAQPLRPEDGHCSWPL
Assay type: cell-based
Procedure, shortened: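 Binding of fluorescent PD-L1-Ig (phycoerythrin linked via the Ig tag, 20 nM final) to PD-1-overexpressing Jurkat cells was imaged after a 2 h, 37° C compound pretreatment and 1 hour ligand incubation.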
Compound CC[C@H](C)[C@@H]1NC(=O)[C@H](Cc2ccc(-c3ccccc3)cc2)NC(=O)[C@H](C(C)C)NC(=O)[C@H](Cc2cccc(Cl)c2)NC(=O)[C@H](CC(=O)O)NC(=O)[C@H](Cc2ccc(OCC(=O)O)cc2)NC(=O)[C@H](Cc2ccc(OCC(=O)O)cc2)NC(=O)CSC[C@@H](C(=O)N[C@@H](C)C(N)=O)NC(=O)[C@H]([C@@H](C)O)NC(=O)[C@H](C(C)C)NC(=O)[C@H](CC2CCCCC2)NC(=O)[C@H](CCN)NC(=O)[C@@H](CC(C)C)NC(=O)[C@H](CCCN)NC1=O [Compound 1568] has an IC50 of 24.5 nM. Cc1cccc(C[C@@H]2NC(=O)[C@H](CC(=O)O)NC(=O)[C@H](Cc3ccc(C(=O)O)cc3)NC(=O)[C@H](Cc3ccncc3)NC(=O)CSC[C@@H](C(=O)N[C@@H](C)C(N)=O)NC(=O)[C@H]([C@@H](C)O)NC(=O)[C@H](C(C)C)NC(=O)[C@H](CC3CCCCC3)NC(=O)[C@H](Cc3c[nH]cn3)NC(=O)[C@@H](CC(C)C)NC(=O)[C@H](CCCN)NC(=O)[C@H](C(C)C)NC(=O)[C@H](Cc3ccc(-c4ccccc4)cc3)NC(=O)[C@H](C(C)C)NC2=O)c1 [Compound 1581] showed an IC50 of 22.4 nM. Cc1cccc(C[C@@H]2NC(=O)[C@H](CC(=O)O)NC(=O)[C@H](Cc3ccncc3)NC(=O)[C@H](Cc3ccc(OCC(=O)O)cc3)NC(=O)CSC[C@@H](C(=O)NCC(N)=O)NC(=O)[C@H](CO)NC(=O)[C@H](C(C)C)NC(=O)[C@H](CC3CCCCC3)NC(=O)[C@H](Cc3c[nH]cn3)NC(=O)[C@@H](CC(C)C)NC(=O)[C@H](CCCN)NC(=O)[C@H](C(C)C)NC(=O)[C@H](Cc3ccc(-c4ccccc4)cc3)NC(=O)[C@H](CC(C)C)NC2=O)c1 [Compound 1585] ({CH2CO}-Y(Carboxymethyl)[4Pal]D[Phe(3-Me)]L[Bip]V[Orn][dL]H[Cha]VSCG-NH2; thioether N-14) showed an IC50 of 50.4 nM.

Same assay, conditions: Jurkat-PD-1 cells, PE-labeled PD-L1-Ig 20 nM final; read-out: Jurkat HPD1_PDL1 IC50
CC(C)C[C@H]1NC(=O)[C@H](CCCN)NC(=O)[C@H](C(C)C)NC(=O)[C@H](Cc2ccc(-c3ccccc3)cc2)NC(=O)[C@H](C(C)C)NC(=O)[C@H](Cc2cccc(Cl)c2)NC(=O)[C@H](CC(=O)O)NC(=O)[C@H](Cc2ccc(C(=O)O)cc2)NC(=O)[C@H](Cc2ccc(OCC(=O)O)cc2)NC(=O)CSC[C@@H](C(=O)N[C@@H](C)C(N)=O)NC(=O)[C@H]([C@@H](C)O)NC(=O)[C@H](C(C)C)NC(=O)[C@H](CC2CCCCC2)NC(=O)[C@H](CCN)NC1=O [Compound 1569] was tested, and the IC50 was 16.4 nM. For CC(C)C[C@H]1NC(=O)[C@H](CCCN)NC(=O)[C@H](C(C)C)NC(=O)[C@H](Cc2ccc(-c3ccccc3)cc2)NC(=O)[C@H](C(C)C)NC(=O)[C@H](Cc2cccc(Cl)c2)NC(=O)[C@H](CC(=O)O)NC(=O)[C@H](Cc2ccncc2)NC(=O)[C@H](Cc2ccc(OCC(=O)O)cc2)NC(=O)CSC[C@@H](C(=O)N[C@@H](C)C(N)=O)NC(=O)[C@H]([C@@H](C)O)NC(=O)[C@H](C(C)C)NC(=O)[C@H](CC2CCCCC2)NC(=O)[C@H](CCN)NC1=O [Compound 1570] ({CH2CO}-Y(Carboxymethyl)[4Pal]D[Phe(3-Cl)]V[Bip]V[Orn][dL][Dab][Cha]VTCA-NH2; thioether N-14), the IC50 was 18.4 nM. CC(C)C[C@H]1NC(=O)[C@H](CCCN)NC(=O)[C@H](C(C)C)NC(=O)[C@H](Cc2ccc(-c3ccccc3)cc2)NC(=O)[C@H](C(C)C)NC(=O)[C@H](Cc2cccc(C(F)(F)F)c2)NC(=O)[C@H](CC(=O)O)NC(=O)[C@H](Cc2ccc(C(=O)O)cc2)NC(=O)[C@H](Cc2ccc(OCC(=O)O)cc2)NC(=O)CSC[C@@H](C(=O)N[C@@H](C)C(N)=O)NC(=O)[C@H]([C@@H](C)O)NC(=O)[C@H](C(C)C)NC(=O)[C@H](CC2CCCCC2)NC(=O)[C@H](CCN)NC1=O [Compound 1571] gave an IC50 of 16.9 nM. Compound Cc1cccc(C[C@@H]2NC(=O)[C@H](CC(=O)O)NC(=O)[C@H](Cc3ccc(OCC(=O)O)cc3)NC(=O)[C@H](Cc3ccc(OCC(=O)O)cc3)NC(=O)CSC[C@@H](C(=O)N[C@@H](C)C(N)=O)NC(=O)[C@H]([C@@H](C)O)NC(=O)[C@H](C(C)C)NC(=O)[C@H](CC3CCCCC3)NC(=O)[C@H](CCN)NC(=O)[C@@H](CC(C)C)NC(=O)[C@H](CCCN)NC(=O)[C@H](C(C)C)NC(=O)[C@H](Cc3ccc(-c4ccccc4)cc3)NC(=O)[C@H](C(C)C)NC2=O)c1 [Compound 1572] has an IC50 of 17.2 nM. Work on CC(C)C[C@H]1NC(=O)[C@H](CCCN)NC(=O)[C@H](C(C)C)NC(=O)[C@H](Cc2ccc(-c3ccccc3)cc2)NC(=O)[C@H](C(C)C)NC(=O)[C@H](Cc2cccc(Cl)c2)NC(=O)[C@H](CC(=O)O)NC(=O)[C@H](Cc2ccc(OCC(=O)O)cc2)NC(=O)[C@H](Cc2ccc(OCC(=O)O)cc2)NC(=O)CSC[C@@H](C(=O)N[C@@H](C)C(N)=O)NC(=O)[C@H]([C@@H](C)O)NC(=O)[C@H](C(C)C)NC(=O)[C@H](CC2CCCCC2)NC(=O)[C@H](CCN)NC1=O [Compound 1573] yielded an IC50 of 18.1 nM. CC(C)C[C@H]1NC(=O)[C@H](CCCN)NC(=O)[C@H](C(C)C)NC(=O)[C@H](Cc2ccc(-c3ccccc3)cc2)NC(=O)[C@H](C(C)C)NC(=O)[C@H](Cc2cccc(C(F)(F)F)c2)NC(=O)[C@H](CC(=O)O)NC(=O)[C@H](Cc2ccc(OCC(=O)O)cc2)NC(=O)[C@H](Cc2ccc(OCC(=O)O)cc2)NC(=O)CSC[C@@H](C(=O)N[C@@H](C)C(N)=O)NC(=O)[C@H]([C@@H](C)O)NC(=O)[C@H](C(C)C)NC(=O)[C@H](CC2CCCCC2)NC(=O)[C@H](CCN)NC1=O [Compound 1574] showed an IC50 of 30.4 nM. CC(C)C[C@H]1NC(=O)[C@H](CCCN)NC(=O)[C@H](C(C)C)NC(=O)[C@H](Cc2ccc(-c3ccccc3)cc2)NC(=O)[C@H](C(C)C)NC(=O)[C@H](Cc2cccc(Cl)c2)NC(=O)[C@H](CC(=O)O)NC(=O)[C@H](Cc2ccc(OCC(=O)O)cc2)NC(=O)[C@H](Cc2ccncc2)NC(=O)CSC[C@@H](C(=O)N[C@@H](C)C(N)=O)NC(=O)[C@H]([C@@H](C)O)NC(=O)[C@H](C(C)C)NC(=O)[C@H](CC2CCCCC2)NC(=O)[C@H](CCN)NC1=O [Compound 1575] gave an IC50 of 16.6 nM. CC(C)C[C@H]1NC(=O)[C@H](CCCN)NC(=O)[C@H](C(C)C)NC(=O)[C@H](Cc2ccc(-c3ccccc3)cc2)NC(=O)[C@H](C(C)C)NC(=O)[C@H](Cc2cccc(C(F)(F)F)c2)NC(=O)[C@H](CC(=O)O)NC(=O)[C@H](Cc2ccc(OCC(=O)O)cc2)NC(=O)[C@H](CN)NC(=O)CSC[C@@H](C(=O)N[C@@H](C)C(N)=O)NC(=O)[C@H]([C@@H](C)O)NC(=O)[C@H](C(C)C)NC(=O)[C@H](CC2CCCCC2)NC(=O)[C@H](CCN)NC1=O [Compound 1576] was tested, and the IC50 was 30.3 nM. CC(C)C[C@H]1NC(=O)[C@H](CCCN)NC(=O)[C@H](C(C)C)NC(=O)[C@H](Cc2ccc(-c3ccccc3)cc2)NC(=O)[C@H](C(C)C)NC(=O)[C@H](Cc2cccc(C(F)(F)F)c2)NC(=O)[C@H](CC(=O)O)NC(=O)[C@H](Cc2ccc(OCC(=O)O)cc2)NC(=O)[C@H](Cc2ccncc2)NC(=O)CSC[C@@H](C(=O)N[C@@H](C)C(N)=O)NC(=O)[C@H]([C@@H](C)O)NC(=O)[C@H](C(C)C)NC(=O)[C@H](CC2CCCCC2)NC(=O)[C@H](CCN)NC1=O [Compound 1577] was tested, and the IC50 was 12.1 nM. In the case of CC(C)C[C@H]1NC(=O)[C@H](CCCN)NC(=O)[C@H](C(C)C)NC(=O)[C@H](Cc2ccc(-c3ccccc3)cc2)NC(=O)[C@H](C(C)C)NC(=O)[C@H](Cc2cccc(Cl)c2)NC(=O)[C@H](CC(=O)O)NC(=O)[C@H](Cc2ccncc2)NC(=O)[C@H](CN)NC(=O)CSC[C@@H](C(=O)N[C@@H](C)C(N)=O)NC(=O)[C@H]([C@@H](C)O)NC(=O)[C@H](C(C)C)NC(=O)[C@H](CC2CCCCC2)NC(=O)[C@H](CCN)NC1=O [Compound 1578] ({CH2CO}-[Dap][4Pal]D[Phe(3-Cl)]V[Bip]V[Orn][dL][Dab][Cha]VTCA-NH2; thioether N-14), the IC50 is reported as 35 nM. For Cc1cccc(C[C@@H]2NC(=O)[C@H](CC(=O)O)NC(=O)[C@H](Cc3ccc(OCC(=O)O)cc3)NC(=O)[C@H](CN)NC(=O)CSC[C@@H](C(=O)N[C@@H](C)C(N)=O)NC(=O)[C@H]([C@@H](C)O)NC(=O)[C@H](C(C)C)NC(=O)[C@H](CC3CCCCC3)NC(=O)[C@H](Cc3cnc[nH]3)NC(=O)[C@@H](CC(C)C)NC(=O)[C@H](CCCN)NC(=O)[C@H](C(C)C)NC(=O)[C@H](Cc3ccc(-c4ccccc4)cc3)NC(=O)[C@H](C(C)C)NC2=O)c1 [Compound 1579], the IC50 was 17.8 nM. Compound Cc1cccc(C[C@@H]2NC(=O)[C@H](CC(=O)O)NC(=O)[C@H](Cc3ccc(OCC(=O)O)cc3)NC(=O)[C@H](Cc3cccnc3)NC(=O)CSC[C@@H](C(=O)NCC(N)=O)NC(=O)[C@H](CO)NC(=O)[C@H](C(C)C)NC(=O)[C@H](CC3CCCCC3)NC(=O)[C@H](Cc3cnc[nH]3)NC(=O)[C@@H](CC(C)C)NC(=O)[C@H](CCCN)NC(=O)[C@H](C(C)C)NC(=O)[C@H](Cc3ccc(-c4ccccc4)cc3)NC(=O)[C@H](CC(C)C)NC2=O)c1 [Compound 1582] ({CH2CO}-[3Pal]Y(Carboxymethyl)D[Phe(3-Me)]L[Bip]V[Orn][dL]H[Cha]VSCG-NH2; thioether N-14) has an IC50 of 36.2 nM. For Cc1cccc(C[C@@H]2NC(=O)[C@H](CC(=O)O)NC(=O)[C@H](Cc3ccncc3)NC(=O)[C@H](CN)NC(=O)CSC[C@@H](C(=O)N[C@@H](C)C(N)=O)NC(=O)[C@H]([C@@H](C)O)NC(=O)[C@H](C(C)C)NC(=O)[C@H](CC3CCCCC3)NC(=O)[C@H](Cc3cnc[nH]3)NC(=O)[C@@H](CC(C)C)NC(=O)[C@H](CCCN)NC(=O)[C@H](C(C)C)NC(=O)[C@H](Cc3ccc(-c4ccccc4)cc3)NC(=O)[C@H](C(C)C)NC2=O)c1 [Compound 1583], the IC50 was 20 nM. Work on Cc1cccc(C[C@@H]2NC(=O)[C@H](CC(=O)O)NC(=O)[C@H](Cc3ccc(O)cc3)NC(=O)[C@H](CC(N)=O)NC(=O)CSC[C@@H](C(=O)N[C@@H](C)C(N)=O)NC(=O)[C@H]([C@@H](C)O)NC(=O)[C@H](C(C)C)NC(=O)[C@H](CC3CCCCC3)NC(=O)[C@H](Cc3cnc[nH]3)NC(=O)[C@@H](CC(C)C)NC(=O)[C@H](CCCN)NC(=O)[C@H](C(C)C)NC(=O)[C@H](Cc3ccc(-c4ccccc4)cc3)NC(=O)[C@H](C(C)C)NC2=O)c1 [Compound 1586] ({CH2CO}-NYD[Phe(3-Me)]V[Bip]V[Orn][dL]H[Cha]VTCA-NH2; thioether N-14) yielded an IC50 of 17.7 nM.
